According to ChEMBL document CHEMBL3885881, “DrugMatrix”:

Species on record: Rattus norvegicus
Experiment: DrugMatrix - Regimen: Daily Repeat
Format: toxicity, organism-based, Sprague-Dawley
Set-up: regimen Daily Repeat, gender Male, age 6-8 weeks
Conditions: in vivo, sc, route subcutaneous, […]; for ABSOLUTE BASOPHIL / ABSOLUTE EOSINOPHIL / ABSOLUTE LYMPHOCYTE / ABSOLUTE MONOCYTE / BASOPHIL / EOSINOPHIL / ERYTHROCYTE COUNT / HEMATOCRIT / HEMOGLOBIN / LEUKOCYTE COUNT / LYMPHOCYTE / MEAN CORPUSCULAR HEMOGLOBIN / MEAN CORPUSCULAR HEMOGLOBIN CONCENTRATION / MEAN CORPUSCULAR VOLUME / MONOCYTE / NEUTROPHIL / NUCLEATED RED BLOOD CELLS / PLATELET COUNT: tissue Blood; for ALANINE AMINOTRANSFERASE / ALBUMIN / ASPARTATE AMINOTRANSFERASE / BLOOD UREA NITROGEN / CARBON DIOXIDE / CHLORIDE / CHOLESTEROL / CREATINE PHOSPHOKINASE / CREATININE / LACTATE DEHYDROGENASE / LIPASE / PHOSPHORUS / POTASSIUM / SODIUM / TOTAL BILIRUBIN / TOTAL PROTEIN / URIC ACID / GLUCOSE: tissue Plasma
[1] = 0 mg/kg, 72 h, dose level Control, time 3 day
[2] = 0 mg/kg, 120 h, dose level Control, time 5 day
[3] = 64 mg/kg, 72 h, dose level Low, time 3 day

Compound: Nc1ccc(S(N)(=O)=O)cc1 [SULFANILAMIDE]
- ABSOLUTE BASOPHIL [1]: 0 CELLS/uL
- ABSOLUTE EOSINOPHIL [1]: 92.33 CELLS/uL
- ABSOLUTE LYMPHOCYTE [1]: 12247.5 CELLS/uL
- ABSOLUTE MONOCYTE [1]: 389.67 CELLS/uL
- BASOPHIL [1]: 0%
- EOSINOPHIL [1]: 0.67%
- ERYTHROCYTE COUNT [1]: 5.45 x10E6/uL
- HEMATOCRIT [1]: 34.85%
- HEMOGLOBIN [1]: 12.97 G/DL
- LEUKOCYTE COUNT [1]: 14.05 x10E3/uL
- LYMPHOCYTE [1]: 87.33%
- MEAN CORPUSCULAR HEMOGLOBIN [1]: 23.78 pg
- MEAN CORPUSCULAR HEMOGLOBIN CONCENTRATION [1]: 37.22 G/DL
- MEAN CORPUSCULAR VOLUME [1]: 63.93 fL
- MONOCYTE [1]: 2.67%
- NEUTROPHIL [1]: 9.33%
- NUCLEATED RED BLOOD CELLS [1]: 0 /100WBC
- PLATELET COUNT [1]: 1174 x10E3/uL
- ALANINE AMINOTRANSFERASE [1]: 48.83 u/L
- ALBUMIN [1]: 4.23 G/DL
- ASPARTATE AMINOTRANSFERASE [1]: 90 u/L
- BLOOD UREA NITROGEN [1]: 15.33 mg/dL
- CARBON DIOXIDE [1]: 23 mmol/L
- CHLORIDE [1]: 103.5 MEQ/L
- CHOLESTEROL [1]: 70.5 mg/dL
- CREATINE PHOSPHOKINASE [1]: 651.83 u/L
- CREATININE [1]: 0.22 mg/dL
- LACTATE DEHYDROGENASE [1]: 165 u/L
- LIPASE [1]: 9.33 u/L
- PHOSPHORUS [1]: 12.03 mg/dL
- POTASSIUM [1]: 6.17 MEQ/L
- SODIUM [1]: 142.62 MEQ/L
- TOTAL BILIRUBIN [1]: 0.2 mg/dL
- TOTAL PROTEIN [1]: 5.73 G/DL
- URIC ACID [1]: 1.77 mg/dL
- ABSOLUTE BASOPHIL [2]: 0 CELLS/uL
- ABSOLUTE EOSINOPHIL [2]: 0 CELLS/uL
- ABSOLUTE LYMPHOCYTE [2]: 12736.67 CELLS/uL
- ABSOLUTE MONOCYTE [2]: 253.5 CELLS/uL
- BASOPHIL [2]: 0%
- EOSINOPHIL [2]: 0%
- ERYTHROCYTE COUNT [2]: 5.72 x10E6/uL
- HEMATOCRIT [2]: 36.05%
- HEMOGLOBIN [2]: 13.62 G/DL
- LEUKOCYTE COUNT [2]: 14.18 x10E3/uL
- LYMPHOCYTE [2]: 89.33%
- MEAN CORPUSCULAR HEMOGLOBIN [2]: 23.83 pg
- MEAN CORPUSCULAR HEMOGLOBIN CONCENTRATION [2]: 37.8 G/DL
- MEAN CORPUSCULAR VOLUME [2]: 63.05 fL
- MONOCYTE [2]: 1.83%
- NEUTROPHIL [2]: 8.83%
- NUCLEATED RED BLOOD CELLS [2]: 0 /100WBC
- PLATELET COUNT [2]: 1322.17 x10E3/uL
- ALANINE AMINOTRANSFERASE [2]: 48.83 u/L
- ALBUMIN [2]: 4.27 G/DL
- ASPARTATE AMINOTRANSFERASE [2]: 75.83 u/L
- BLOOD UREA NITROGEN [2]: 15.5 mg/dL
- CARBON DIOXIDE [2]: 30.5 mmol/L
- CHLORIDE [2]: 102.33 MEQ/L
- CHOLESTEROL [2]: 76.17 mg/dL
- CREATINE PHOSPHOKINASE [2]: 205.5 u/L
- CREATININE [2]: 0.2 mg/dL
- GLUCOSE [2]: 149.67 mg/dL
- LACTATE DEHYDROGENASE [2]: 124.5 u/L
- LIPASE [2]: 10 u/L
- PHOSPHORUS [2]: 10.93 mg/dL
- POTASSIUM [2]: 6.59 MEQ/L
- SODIUM [2]: 143.1 MEQ/L
- TOTAL BILIRUBIN [2]: 0.2 mg/dL
- TOTAL PROTEIN [2]: 6.05 G/DL
- URIC ACID [2]: 1.45 mg/dL
- ABSOLUTE BASOPHIL [3]: 0 CELLS/uL
- ABSOLUTE EOSINOPHIL [3]: 0 CELLS/uL
- ABSOLUTE LYMPHOCYTE [3]: 13215.67 CELLS/uL
- ABSOLUTE MONOCYTE [3]: 191 CELLS/uL
- BASOPHIL [3]: 0%
- EOSINOPHIL [3]: 0%
- ERYTHROCYTE COUNT [3]: 5.71 x10E6/uL
- HEMATOCRIT [3]: 36.53%
- HEMOGLOBIN [3]: 13.5 G/DL
- LEUKOCYTE COUNT [3]: 14.17 x10E3/uL
- LYMPHOCYTE [3]: 93.33%
- MEAN CORPUSCULAR HEMOGLOBIN [3]: 23.67 pg
- MEAN CORPUSCULAR HEMOGLOBIN CONCENTRATION [3]: 36.97 G/DL
- MEAN CORPUSCULAR VOLUME [3]: 64.03 fL
- MONOCYTE [3]: 1.33%
- NEUTROPHIL [3]: 5.33%
- NUCLEATED RED BLOOD CELLS [3]: 0 /100WBC
- PLATELET COUNT [3]: 1225.33 x10E3/uL
- ALANINE AMINOTRANSFERASE [3]: 53 u/L
- ALBUMIN [3]: 4.13 G/DL
- ASPARTATE AMINOTRANSFERASE [3]: 87 u/L
- BLOOD UREA NITROGEN [3]: 16.33 mg/dL
- CARBON DIOXIDE [3]: 25.33 mmol/L
- CHLORIDE [3]: 103 MEQ/L
- CHOLESTEROL [3]: 70.33 mg/dL
- CREATINE PHOSPHOKINASE [3]: 269 u/L
- CREATININE [3]: 0.24 mg/dL
- GLUCOSE [3]: 150.67 mg/dL
- LACTATE DEHYDROGENASE [3]: 408.33 u/L
- LIPASE [3]: 10 u/L
- PHOSPHORUS [3]: 13.03 mg/dL
- POTASSIUM [3]: 6.94 MEQ/L
- SODIUM [3]: 144.53 MEQ/L
- TOTAL BILIRUBIN [3]: 0.27 mg/dL
- TOTAL PROTEIN [3]: 5.7 G/DL
- URIC ACID [3]: 1.7 mg/dL
